Measured values from patent publication US20220257603A1, “COMBINATION THERAPY FOR TREATING MTAP-DEFICIENT TUMORS” (Board of Regents, The University of Texas System, priority 2019, published 2022).

What was measured:
[1] = system: MTAP-wild type tumor; experiment: Tumor growth in xenograft mouse model, MTAP-wild type tumor; format: in vivo; conditions: FIG. 2D
Source text: (§1) Asterisk represents a patient that died of a car accident and thus was not evaluable.
(§2) Pemetrexed inhibited MTAP-deficient human tumor growth (FIG. 2C) but not MTAP-wild type tumor growth (FIG. 2D) in a xenograft mouse model.

[2] = system: MTAP-deficient vs. MTAP-wild type human bladder cancer cell lines; experiment: Apoptosis (sub-G1 population) after pemetrexed in human bladder cancer cell lines; format: cell-based; conditions: FIG. 2A
Source text: as §1, §2

[3] = system: MTAP-deficient human tumor; experiment: Tumor growth in xenograft mouse model, MTAP-deficient tumor; format: in vivo; conditions: FIG. 2C
Source text: as §1, §2

[4] = system: MB49 tumors; experiment: Immune cells in MB49 tumors with in vivo pemetrexed treatment; conditions: FIG. 4B
Source text: (§3) For example, pemetrexed induced PD-L1 in MTAP-deficient bladder cancer cell lines (FIG. 4A). […] Based on this, FIG. 6 provides a proposed phase 2 trial schema for combination treatment with pemetrexed and an anti-PD-L1 therapy (e.g., avelumab).

[5] = system: PD-L1; experiment: PD-L1 expression in vivo on MB49 tumors; conditions: FIG. 4C
Source text: as §3

[6] = system: PD-L1; experiment: PD-L1 expression in MTAP-deficient bladder cancer cell lines after pemetrexed; format: cell-based; conditions: FIG. 4A
Source text: as §3

[7] = system: MTAP-deficient bladder cancer vs MTAP-wild type bladder cancer; experiment: Response of bladder cancer patients to pemetrexed (RECIST); format: in vivo, human
Source text: as §1, §2

[8] = system: MTAP-knockdown human tumors; experiment: Tumor growth in xenograft mouse model, MTAP-knockdown tumor; format: in vivo; conditions: FIG. 2E
Source text: as §1, §2

[9] = system: PD-L1; experiment: PD-L1 expression on tumor cells with anti-folate agents; conditions: both in vitro and in vivo
Source text: Many types of tumors contain homozygous deletion of the methylthioadenosine phosphorylase (MTAP) gene, which encodes an essential enzyme to catalyze methylthioadenosine (MTA) in the salvage pathway for adenosine synthesis.

[10] = system: MTAP knockdown human bladder cell lines; experiment: Apoptosis (sub-G1 population) after MTAP knockdown in human bladder cancer cell lines; format: cell-based; conditions: FIG. 2B
Source text: as §1, §2

[11] = system: activated human T cells; conditions: incubation with MTA; cited from earlier work
[12] = system: mouse CD8 T cells; experiment: Cytokine production by activated mouse CD8 T cells; format: cell-based
Description: MTA was added into culture for 72 h.
MTA was added into culture for 72 h. […] Therefore, a triple combination therapy with pemetrexed +A2BR antagonists+anti-PD-L1 (or anti-PD1) can be ultra-effective for MTAP-deficient malignancies through five different mechanisms: (1) direct cytotoxicity (from pemetrexed); (2) decrease of MTA levels (from pemetrexed cytotoxicity) and thus alleviation of inhibition of IFN signaling and T cell function; (3) increases in levels of tumor PD-L1 expression (from pemetrexed); (4) T cell activation by mitigating MTA inhibition (A2BR antagonists); and (5) further T cell activation by inhibiting checkpoint molecule PD-L1 (anti-PD-L1 or anti-PD1).

SMILES: Nc1nc2[nH]cc(CCc3ccc(C(=O)N[C@@H](CCC(=O)O)C(=O)O)cc3)c2c(=O)[nH]1 [Pemetrexed]
- tumor growth [1]: not
- potency in inducing apoptosis (sub-G1 population), MTAP-deficient vs. MTAP-wild type [2]: at least 40 fold
- tumor growth [3]: inhibited
- CD4/8 T cells in tumors [4]: increased
- MDSCs in tumors [4]: decreased
- dendritic cells in tumors [4]: increased
- macrophages in tumors [4]: increased
- PD-L1 expression in vivo [5]: induced PD-L1
- PD-L1 expression [6]: induced PD-L1
- response rate, MTAP-deficient vs MTAP-wild type bladder cancer patients ([7]; combined retrospective and prospective data, FIG. 2H): higher response rate
- response rate, MTAP-deficient vs MTAP-wild type bladder cancer patients ([7]; prospective data, FIG. 2G): higher response rate
- response rate, MTAP-deficient vs MTAP-wild type bladder cancer patients ([7]; retrospective data, FIG. 2F): higher response rate
- tumor growth [8]: inhibited growth
- PD-L1 expression on tumor cells [9]: induce PD-L1 expression
- apoptosis with pemetrexed treatment [10]: significant apoptosis

SMILES: CSC[C@H]1O[C@@H](n2cnc3c(N)ncnc32)[C@H](O)[C@@H]1O [MTA, methylthioadenosine]
- cytotoxicity to activated human T cells [11]: cytotoxic

SMILES: CCCn1c(=O)[nH]c2nc(-c3ccc(S(=O)(=O)N4CCN(c5ccc(Cl)cc5)CC4)cc3)[nH]c2c1=O [PSB-603]
- rescue of MTA-induced inhibition on the production of INF-γ ([12]; PSB603+MTA, mouse CD8 T cells, FIG. 7A): partially rescue
- rescue of MTA-induced inhibition on the production of TNF-α ([12]; PSB603+MTA, mouse CD8 T cells, FIG. 7B): partially rescue

SMILES: CN(Cc1cnc2nc(N)nc(N)c2n1)c1ccc(C(=O)N[C@@H](CCC(=O)O)C(=O)O)cc1 [methotrexate, Methotrexate]
- PD-L1 expression on tumor cells [9]: induce PD-L1 expression

SMILES: N#Cc1c(N)nc(SCC(N)=O)c(C#N)c1-c1ccc(OCC2CC2)cc1 [Bay60-6385]
- production of INF-γ ([12]; mouse CD8 T cells activated with anti-CD3/anti-CD28, 72 h, FIGS. 5A & 7A): mimic this inhibition
- production of TNF-α ([12]; mouse CD8 T cells activated with anti-CD3/anti-CD28, 72 h, FIGS. 5B & 7B): mimic this inhibition
